Data as given in patent publication US5308843A, “Method of inhibiting mammalian topoisomerase II and malignant cell growth in mammals, with substituted (S)-3-methyl-7-oxo-2,3-dihydro-7H-pyrido[1,2,3-de][1,4 ]-benzoxazine(and-benzothiazine)-6-carboxylic acids” (Sterling Drug Inc., priority 1990, dated 1994).
“Also recorded” adds a separate entry of the source.

Columns and labels:
Parameters in all cases: species or system mice
[1] = test system: colon adenocarcinoma No. 38; assay: In vivo antitumor assay, colon adenocarcinoma No. 38 (SC)
Source text: (§1) In vivo Antitumor Assay Procedure
(§2) Mice: Inbred: C3H/He; and Hybrids: B6D2F1 (C57BL/6 females×DBA/2 males), CD2F1 (Balb/c females×DBA/2 males) and B6C3F1 (C57BL/6×C3H) were bred at Wayne State University from strains obtained from the Frederick Cancer Research Facility, Frederick, Md. or from commercial suppliers.
(§3) Tumors: Murine Tumors: P388 leukemia and the following transplantable solid tumors of mice were used for in vivo testing: B16 melanoma, pancreatic ductal adenocarcinoma No. 03, colon adenocarcinoma No. 38 and mammary ductal adenocarcinoma No. 16/C. All tumors are in the Developmental Therapeutics Program frozen tumor repository, maintained by the Biological Testing Branch, Frederick, Md. Each has a detailed description, code identification number, and list of references at the National Tumor Repository. Tumors were maintained in the mouse strain of origin and were transplanted in the appropriate F1 hybrid (or the strain of origin) for therapy trials. The mice were supplied food and water ad libitum.
(§4) Chemotherapy: For pancreatic ductal adenocarcinoma No. 03, colon adenocarcinoma No. 38, and mammary ductal adenocarcinoma No. 16, the following methods were used to help ensure a more uniform tumor burden per mouse (thus reducing the requirement for greater numbers of mice per group), bilateral tumor implants were used. The animals necessary to begin an experiment were pooled, implanted bilaterally s.c. on day zero with 30-60-mg tumor fragments using a 12-gauge trocar, and again pooled before randomization to the various treatment and control groups. Chemotherapy was started within three days after tumor implantation while the number of cells per mouse was relatively small (1×10^7 -1×10^8 cells).
(§5) End Points for Assessing Antitumor Activity: Quantitative end points used to assess antitumor activity included % Increased Life Span (% ILS), Tumor Cell Kill (Log10 kill), and Tumor Growth Inhibition (T/C). Long Term Survivors (45 or 60 day) were excluded from calculations of % ILS and Tumor Cell Kill.
(§6) Endpoints were calculated as follows: [formula] where Dt is the median day of death for treated and Dc is the median day of death for control groups.
(§7) T/C Value: Tumors were measured with a caliper once or twice weekly (as needed) until either tumors exceeded 1600 mg or cure was assured. Tumor weights were estimated from two-dimensional measurements: Tumor Weight (mg)=(a×b^2)/2, where a and b are the tumor length and width (mm), respectively. Measurements were carried out simultaneously in both the treatment and control groups. When the control group tumors reached approximately 750-1500 mg in size (median of group), the median tumor weight of each group was determined (including zeros). The T/C value in percent is an indication of antitumor effectiveness. […]. […]

[2] = as above; conditions: mouse, in vivo; Colon 38 (SC); drug SC; QD3-9; read-out: Maximum Tolerated Total Dose
Source text: as §1, §2, §3, §4, §5, §6, §7

[3] = test system: pancreatic ductal adenocarcinoma No. 03; assay: In vivo antitumor assay, pancreatic ductal adenocarcinoma No. 03 (Panc03, SC)
Source text: as §1, §2, §3, §4, §5, §6, §7

[4] = as above; conditions: mouse, in vivo; Panc03 (SC); drug SC; QD3-9; read-out: Maximum Tolerated Total Dose
Source text: as §1, §2, §3, §4, §5, §6, §7

Cc1cc(-c2c(F)cc3c(=O)c(C(=O)O)cn4c3c2SC[C@@H]4C)cc(C)n1 [Example 5, (S)-10-(2,6-Dimethyl-4-pyridinyl)-9-fluoro-3-methyl-7-oxo-2,3-dihydro-7H-pyrido[1,2,3-de][1,4]benzothiazine-6-carboxylic acid]
Long Term Survivors ([1]; Colon 38 (SC), drug SC, QD3-9, 504 mg/kg total, footnote 4: Cure, no tumor evident, day 119): 1/5
% T/C ([1]; Colon 38 (SC), drug SC, QD3-9, at maximum tolerated total dose 504 mg/kg): 0%
antitumor activity (in words) ([1]; Colon Adenocarcinoma 38): Cure; no tumor evident; day 119; also recorded: clearly active; also recorded: highly active
MTD [2]: 504 mg/kg
Long Term Survivors ([3]; Panc03 (SC), drug SC, QD3-9, 781 mg/kg total): 0/5
% T/C ([3]; Panc03 (SC), drug SC, QD3-9, at maximum tolerated total dose 781 mg/kg): 17%
antitumor activity (in words) ([3]; Pancreatic Ductal Adenocarcinoma 03): clearly active
MTD [4]: 781 mg/kg
